One data set relates to PC12 cells (clone HS). The experiment in a line: Cytotoxicity of steviol to PC12 cells (WST-8 viable cell count). Format: cell-based, Rat. Particulars: for Relative viable cell count (%): 3 days, Control=100%. On the procedure:
PC12 cells (clone HS, Cat. No. JCRB0266, JCRB) were precultured for 3 days in a collagen IV-coated flask (T-75, Corning Inc., Cat. No. 354523) using a growth medium (DMEM medium (low glucose, Cat. No. 08456-65, Nacalai Tesque, Inc.) supplemented with 10% FBS (Cat. No. 172012, Sigma-Aldrich Co., LLC), 10% horse serum (Cat. No. 16050-122, Thermo Fisher Scientific Inc.), and 1% penicillin-streptomycin) in a CO2 incubator (37° C., 5% CO2; the same holds true for the description below). […] A vehicle control composed of a test medium supplemented with 0.1% DMSO (final concentration) was used as a negative control.

A further data set relates to GRP78. Briefly: GRP78 expression in neuronal cells under endoplasmic reticulum stress (RT-PCR). Format: cell-based, Rat. Particulars: pretreatment 24 h, tunicamycin 1.0 μM 24 h. The method, then:
Neuronal cells were prepared as follows. PC12 cells were reconstituted by seeding at 2×10^6 cells/flask to a collagen IV-coated flask, and precultured for 3 days in the growth medium in a CO2 incubator.
The lysate was preserved at −80° C. until use.
The internal standard gene used was GAPDH gene.

The subject of data set [1] is neuronal cells (induced from PC12 cells). Briefly: Cell-protecting effect against tunicamycin-induced endoplasmic reticulum stress (WST-8). Particulars: 1 μM tunicamycin. In general terms: Tetrazolium dyes change colour on reduction, which living cells bring about.
Procedure: PC12 cells were precultured using the growth medium in a same manner as Example 3. The cells were detached using 0.25% trypsin-EDTA, seeded at 5,000 cells/100 μL/well to a collagen IV-coated 96-well plate (Cat. No. 354429, Corning) using the growth medium, and cultured overnight in a CO2 incubator. On the next day, the medium was replaced with 100 μL of the differentiation medium, and the cells were cultured for 2 days in a CO2 incubator to induce their differentiation into neuronal cells. […] IGF-1 (Cat. No. SRP4121, Sigma-Aldrich Co., LLC) was dissolved at 100 μg/mL in Nuclease Free Water and then added at 100 ng/mL to the differentiation medium.
After the completion of endoplasmic reticulum stress induction treatment, viable cell count measurement was performed by the WST-8 method to evaluate damage on the cells by endoplasmic reticulum stress. Specifically, the medium of each well after culture was replaced with 200 μL of a differentiation medium supplemented with a 1/10 amount of viable cell count measurement reagent SF, and the cells were incubated in a CO2 incubator. 30 minutes later and 90 minutes later, absorbance (450 nm, reference wavelength: 630 nm) was measured using a plate reader (VARIOSKAN FLASH, Thermo Fisher Scientific Inc.), and absorbance difference per 60 minutes was regarded as a relative viable cell count.

`C=C1C[C@@]23CC[C@H]4[C@@](C)(CCC[C@@]4(C)C(=O)O)[C@@H]2CC[C@]1(O)C3` [Steviol]: the “cytotoxicity to PC12 cells (in words)” value in the data set with PC12 cells (clone HS) (100 μg/mL steviol) is “no particular cytotoxicity to be noted was found”. The “Relative viable cell count (%)” value is 102.8% in the data set on PC12 cells (clone HS) (steviol 0.01 μg/mL); 97.0% with PC12 cells (clone HS) (steviol 0.1 μg/mL); 95.3% in the data set with PC12 cells (clone HS) (steviol 1 μg/mL); 99.6% in the data set on PC12 cells (clone HS) (steviol 10 μg/mL); 96.9% in the data set with PC12 cells (clone HS) (steviol 100 μg/mL). In addition, the “Expression level of GRP78 in neuronal cells (relative to GAPDH, untreated=1)” value in the data set with GRP78 (steviol 6.25 μg/mL) turned out to be 23.31; with GRP78 (steviol 12.5 μg/mL) it was 23.00; in the data set with GRP78 (steviol 25 μg/mL), 21.84; in the data set with GRP78 (steviol 50 μg/mL) it was 20.15. For the same compound, the “adverse effect of endoplasmic reticulum stress on cells (in words)” value in data set [1] is reported as “suppressed an adverse effect of endoplasmic reticulum stress on cells in a concentration-dependent manner”.

These data come from patent US20230064324A1, “NEW USES FOR STEVIOL” (SUNTORY HOLDINGS LIMITED, priority 2019, published 2023).
